These results are taken from patent US11603355B2, “Charged ion channel blockers and methods for use” (Nocion Therapeutics, Inc., priority 2019, dated 2023).

Data set [1] in a line: PAMPA membrane permeability assay. The conditions noted are these: permeability coefficient, pH 7.4 buffer, GIT lipid, 4 hours incubation. The data set is classed as in vitro ADME. The procedure, abridged:
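Passive diffusion across a GIT-lipid-painted artificial membrane at pH 7.4, with a 50 uM donor stock diluted from DMSO and a 4 h incubation. UV spectra of the donor, acceptor and reference plates were read, and the permeability coefficient was calculated from the AUCs, in 10^−6 cm/s.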

Another data set concerns the target T1, NaV1.7 (Homo sapiens, UniProt Q15858).
T1 construct: expressed in transfected cells; host or cells: HEK293 (tetracycline-inducible)
As to the kind of experiment: Manual patch clamp, internal block of NaV1.7 current. The data set is classed as cell-based. The settings on record: compound in internal solution, HEK293 cells, read-out: Nav1.7 Intracellular Inhibition; for inhibition at 3 µM: % inhibition at 3 μM test concentration. The method in brief:
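Whole-cell recordings at room temperature in tetracycline-induced HEK293 cells, compound in CsCl internal solution (pH 7.2), held at −100 mV with 10 ms steps to −20 mV. Four 30 s 5 Hz trains after 5 min baseline; fraction of peak inward current remaining computed as Itest/Ibaseline.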
On the technique in general: The patch-clamp technique gives a direct electrical read-out from membranes.

T1 sequence (Q15858 whole entry): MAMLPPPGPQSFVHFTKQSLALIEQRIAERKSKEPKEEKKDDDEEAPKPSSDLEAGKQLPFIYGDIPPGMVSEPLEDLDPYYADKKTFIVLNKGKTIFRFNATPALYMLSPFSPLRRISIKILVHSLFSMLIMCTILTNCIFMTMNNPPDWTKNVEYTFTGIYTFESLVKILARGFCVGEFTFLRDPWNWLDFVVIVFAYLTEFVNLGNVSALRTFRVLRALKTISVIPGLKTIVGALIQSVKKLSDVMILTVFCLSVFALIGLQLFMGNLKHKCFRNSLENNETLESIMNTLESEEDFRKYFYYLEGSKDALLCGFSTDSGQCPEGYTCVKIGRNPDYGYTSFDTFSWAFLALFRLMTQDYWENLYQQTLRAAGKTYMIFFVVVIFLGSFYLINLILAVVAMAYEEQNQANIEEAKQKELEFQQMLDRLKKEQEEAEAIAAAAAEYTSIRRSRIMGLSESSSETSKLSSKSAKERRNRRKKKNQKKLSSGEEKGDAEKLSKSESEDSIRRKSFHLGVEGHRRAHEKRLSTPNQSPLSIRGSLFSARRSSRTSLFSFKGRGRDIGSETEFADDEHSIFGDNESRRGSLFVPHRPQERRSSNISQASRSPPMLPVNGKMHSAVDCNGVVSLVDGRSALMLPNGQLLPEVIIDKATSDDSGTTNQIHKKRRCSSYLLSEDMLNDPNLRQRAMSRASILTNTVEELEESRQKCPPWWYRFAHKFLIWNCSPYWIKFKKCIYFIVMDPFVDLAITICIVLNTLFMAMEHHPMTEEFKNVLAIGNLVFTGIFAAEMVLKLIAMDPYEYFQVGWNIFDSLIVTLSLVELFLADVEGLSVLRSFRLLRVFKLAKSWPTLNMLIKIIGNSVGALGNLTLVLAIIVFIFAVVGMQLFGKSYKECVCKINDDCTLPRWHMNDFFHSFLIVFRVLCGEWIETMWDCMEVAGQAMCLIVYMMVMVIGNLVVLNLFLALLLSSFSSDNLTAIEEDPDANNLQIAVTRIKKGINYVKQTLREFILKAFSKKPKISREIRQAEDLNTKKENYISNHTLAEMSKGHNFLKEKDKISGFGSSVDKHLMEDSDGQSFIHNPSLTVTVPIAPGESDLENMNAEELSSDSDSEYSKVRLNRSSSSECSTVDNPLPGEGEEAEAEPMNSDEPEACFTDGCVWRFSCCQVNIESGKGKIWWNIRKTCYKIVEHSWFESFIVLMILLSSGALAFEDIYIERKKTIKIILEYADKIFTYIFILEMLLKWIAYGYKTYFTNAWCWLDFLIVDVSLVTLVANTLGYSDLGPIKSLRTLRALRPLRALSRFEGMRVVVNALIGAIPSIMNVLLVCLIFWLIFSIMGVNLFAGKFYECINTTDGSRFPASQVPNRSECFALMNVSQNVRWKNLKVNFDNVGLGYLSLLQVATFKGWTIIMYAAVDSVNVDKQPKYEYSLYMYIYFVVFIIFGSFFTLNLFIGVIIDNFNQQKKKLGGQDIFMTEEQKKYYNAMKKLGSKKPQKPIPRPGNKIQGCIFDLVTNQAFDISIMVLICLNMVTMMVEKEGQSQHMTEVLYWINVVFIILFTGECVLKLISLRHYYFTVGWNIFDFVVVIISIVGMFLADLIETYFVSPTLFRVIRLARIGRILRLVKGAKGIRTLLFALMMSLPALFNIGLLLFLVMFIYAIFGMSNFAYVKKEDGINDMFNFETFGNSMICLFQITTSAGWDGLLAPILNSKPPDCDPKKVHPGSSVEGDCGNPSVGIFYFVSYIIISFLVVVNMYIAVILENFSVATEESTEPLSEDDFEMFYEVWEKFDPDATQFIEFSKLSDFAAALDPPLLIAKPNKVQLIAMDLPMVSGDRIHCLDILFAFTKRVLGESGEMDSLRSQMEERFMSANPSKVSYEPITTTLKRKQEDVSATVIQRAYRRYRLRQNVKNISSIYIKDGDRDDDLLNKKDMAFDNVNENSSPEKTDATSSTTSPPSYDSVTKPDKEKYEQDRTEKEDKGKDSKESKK

`CC[N+](CC)(CCCc1ccccc1)CC(=O)Nc1c(C)cccc1C.[Br-]` [Compound 86A, N-(2-((2,6-dimethylphenyl)amino)-2-oxoethyl)-N, N-diethyl-3-phenylpropan-1-aminium bromide]: in data set [1], the “PAMPA (10^−6 cm/s)” value is given as “+ (“+” (<0.1 10^−6 cm/s))”. Besides, the inhibition – broadly, the percentage by which the read-out fell short of the control – at 3 µM on NaV1.7 was more than 90%. Further, on NaV1.7 (% inhibition at 10 μM test concentration), the inhibition at 10 µM is more than 95%.
Consider `Cc1cccc(C)c1N1CCC([N+]2(Cc3ccccc3)CCCCC2)C1=O.[Br-]` (stereo not drawn) [Compound 89A, 1-benzyl-1-(1-(2,6-dimethylphenyl)-2-oxopyrrolidin-3-yl)piperidin-1-ium bromide], for which, in data set [1], the “PAMPA (10^−6 cm/s)” value is “++ (“++” (0.1-2.0 10^−6 cm/s))”. In addition, the inhibition at 3 µM at NaV1.7 fell in the range of 70 to 90%.
Taken in the same sequence, the figures for `Cc1cccc(C)c1N1CCC([N+]2(Cc3ccccc3)CCCCCCC2)C1=O.[Br-]` (stereo not drawn) [Compound 90A] were “+ (“+” (<0.1 10^−6 cm/s))” and more than 90%.
In the case of `Cc1cccc(C)c1N1CCCC([N+]2(Cc3ccccc3)CCCC2)C1=O.[Br-]` (stereo not drawn) [Compound 91A, 1-benzyl-1-(1-(2,6-dimethylphenyl)-2-oxopiperidin-3-yl) pyrrolidin-1-ium bromide], in data set [1], the “PAMPA (10^−6 cm/s)” value was “+ (“+” (<0.1 10^−6 cm/s))”. Besides, the inhibition at 3 µM on NaV1.7 was 40 to 70%.
